Measured values taken from PubChem BioAssay (NCI).
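Five concentrations, 48 hours, 96-well plates. TGI denotes the concentration required for complete inhibition of growth.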

Tests used:
Experiment in all cases: NCI tumour cell line growth inhibition, 48 h
MDA-N = tested on: MDA-N
MCF7 breast = tested on: MCF7 breast
CCRF-CEM leukemia = tested on: CCRF-CEM leukemia
OVCAR-4 ovarian = tested on: OVCAR-4 ovarian
UACC-62 melanoma = tested on: UACC-62 melanoma
MDA-MB-231 breast = tested on: MDA-MB-231 breast
HT29 colon = tested on: HT29 colon
SN12C renal = tested on: SN12C renal
HCT-116 colon = tested on: HCT-116 colon
SK-MEL-2 melanoma = tested on: SK-MEL-2 melanoma
NCI/ADR-RES ovarian = tested on: NCI/ADR-RES ovarian
NCI-H23 lung = tested on: NCI-H23 lung
OVCAR-3 ovarian = tested on: OVCAR-3 ovarian
786-0 renal = tested on: 786-0 renal
HOP-92 NSCLC = tested on: HOP-92 NSCLC
MALME-3M melanoma = tested on: MALME-3M melanoma
COLO 205 colon = tested on: COLO 205 colon
KM12 colon = tested on: KM12 colon
T-47D breast = tested on: T-47D breast
SF-295 CNS = tested on: SF-295 CNS
SW-620 colon = tested on: SW-620 colon
SF-539 CNS = tested on: SF-539 CNS
A498 renal = tested on: A498 renal
HL-60(TB) leukemia = tested on: HL-60(TB) leukemia
RXF 393 renal = tested on: RXF 393 renal
NCI-H460 lung = tested on: NCI-H460 lung
OVCAR-8 ovarian = tested on: OVCAR-8 ovarian
UACC-257 melanoma = tested on: UACC-257 melanoma
LOX IMVI melanoma = tested on: LOX IMVI melanoma
PC-3 prostate = tested on: PC-3 prostate
CAKI-1 renal = tested on: CAKI-1 renal
SR leukemia = tested on: SR leukemia
ACHN renal = tested on: ACHN renal
SK-MEL-5 melanoma = tested on: SK-MEL-5 melanoma
SNB-19 CNS = tested on: SNB-19 CNS
EKVX NSCLC = tested on: EKVX NSCLC
HCC-2998 colon = tested on: HCC-2998 colon
SK-OV-3 ovarian = tested on: SK-OV-3 ovarian
OVCAR-5 ovarian = tested on: OVCAR-5 ovarian
MDA-MB-435 = tested on: MDA-MB-435
M14 melanoma = tested on: M14 melanoma
A549 NSCLC = tested on: A549 NSCLC
SF-268 CNS = tested on: SF-268 CNS
NCI-H226 lung = tested on: NCI-H226 lung
HCT-15 colon = tested on: HCT-15 colon
MOLT-4 leukemia = tested on: MOLT-4 leukemia
TK-10 renal = tested on: TK-10 renal
HS 578T breast = tested on: HS 578T breast
SK-MEL-28 melanoma = tested on: SK-MEL-28 melanoma
HOP-62 NSCLC = tested on: HOP-62 NSCLC
DU-145 prostate = tested on: DU-145 prostate
SNB-75 CNS = tested on: SNB-75 CNS
IGROV1 ovarian = tested on: IGROV1 ovarian
U251 CNS = tested on: U251 CNS
K-562 leukemia = tested on: K-562 leukemia
UO-31 renal = tested on: UO-31 renal
RPMI-8226 leukemia = tested on: RPMI-8226 leukemia
NCI-H522 lung = tested on: NCI-H522 lung
BT-549 breast = tested on: BT-549 breast

SMILES: O=C1SCC(O)=C1/C=N/Nc1nc2ccccc2o1
- TGI (MDA-N): > 100 µM
- TGI (MCF7 breast): > 100 µM
- TGI (CCRF-CEM leukemia): 48.8 µM
- TGI (OVCAR-4 ovarian): > 100 µM
- TGI (UACC-62 melanoma): 46.1 µM
- TGI (MDA-MB-231 breast): > 100 µM
- TGI (HT29 colon): 83.7 µM
- TGI (SN12C renal): 96 µM
- TGI (HCT-116 colon): 50 µM
- TGI (SK-MEL-2 melanoma): > 100 µM
- TGI (NCI/ADR-RES ovarian): 43.3 µM
- TGI (NCI-H23 lung): 86.3 µM
- TGI (OVCAR-3 ovarian): 65.5 µM
- TGI (786-0 renal): > 100 µM
- TGI (HOP-92 NSCLC): 81.7 µM
- TGI (MALME-3M melanoma): > 100 µM
- TGI (COLO 205 colon): 81 µM
- TGI (KM12 colon): > 100 µM
- TGI (T-47D breast): 54.7 µM
- TGI (SF-295 CNS): 72.4 µM
- TGI (SW-620 colon): > 100 µM
- TGI (SF-539 CNS): 40.8 µM
- TGI (A498 renal): > 100 µM
- TGI (HL-60(TB) leukemia): 24.7 µM
- TGI (RXF 393 renal): 70.7 µM
- TGI (NCI-H460 lung): > 100 µM
- TGI (OVCAR-8 ovarian): 46.6 µM
- TGI (UACC-257 melanoma): 72.5 µM
- TGI (LOX IMVI melanoma): > 100 µM
- TGI (PC-3 prostate): 88.6 µM
- TGI (CAKI-1 renal): > 100 µM
- TGI (SR leukemia): > 100 µM
- TGI (ACHN renal): > 100 µM
- TGI (SK-MEL-5 melanoma): 63.9 µM
- TGI (SNB-19 CNS): > 100 µM
- TGI (EKVX NSCLC): 96.1 µM
- TGI (HCC-2998 colon): > 100 µM
- TGI (SK-OV-3 ovarian): 82.8 µM
- TGI (OVCAR-5 ovarian): > 100 µM
- TGI (MDA-MB-435): > 100 µM
- TGI (M14 melanoma): 57.5 µM
- TGI (A549 NSCLC): 95.4 µM
- TGI (SF-268 CNS): > 100 µM
- TGI (NCI-H226 lung): 76.6 µM
- TGI (HCT-15 colon): > 100 µM
- TGI (MOLT-4 leukemia): > 100 µM
- TGI (TK-10 renal): 92.8 µM
- TGI (HS 578T breast): > 100 µM
- TGI (SK-MEL-28 melanoma): > 100 µM
- TGI (HOP-62 NSCLC): > 100 µM
- TGI (DU-145 prostate): > 100 µM

SMILES: O=C(NCCCNC(=O)c1ccc2cc(O)c(O)cc2c1)c1ccc2cc(O)c(O)cc2c1
- TGI (MDA-N): > 100 µM
- TGI (MCF7 breast): > 100 µM
- TGI (CCRF-CEM leukemia): 66.3 µM
- TGI (OVCAR-4 ovarian): 45.4 µM
- TGI (UACC-62 melanoma): 42.7 µM
- TGI (HT29 colon): 81.2 µM
- TGI (SNB-75 CNS): > 100 µM
- TGI (HCT-116 colon): > 100 µM
- TGI (SK-MEL-2 melanoma): 34 µM
- TGI (NCI/ADR-RES ovarian): > 100 µM
- TGI (NCI-H23 lung): 63.5 µM
- TGI (HOP-92 NSCLC): 48 µM
- TGI (IGROV1 ovarian): > 100 µM
- TGI (MALME-3M melanoma): > 100 µM
- TGI (COLO 205 colon): > 100 µM
- TGI (KM12 colon): > 100 µM
- TGI (T-47D breast): 90.6 µM
- TGI (SW-620 colon): > 100 µM
- TGI (U251 CNS): > 100 µM
- TGI (SF-539 CNS): 35.6 µM
- TGI (A498 renal): > 100 µM
- TGI (HL-60(TB) leukemia): 59.7 µM
- TGI (RXF 393 renal): 99.7 µM
- TGI (NCI-H460 lung): > 100 µM
- TGI (OVCAR-8 ovarian): > 100 µM
- TGI (UACC-257 melanoma): > 100 µM
- TGI (LOX IMVI melanoma): 67.4 µM
- TGI (PC-3 prostate): > 100 µM
- TGI (K-562 leukemia): > 100 µM
- TGI (UO-31 renal): > 100 µM
- TGI (CAKI-1 renal): > 100 µM
- TGI (SR leukemia): > 100 µM
- TGI (ACHN renal): > 100 µM
- TGI (SK-MEL-5 melanoma): 48.4 µM
- TGI (RPMI-8226 leukemia): > 100 µM
- TGI (SNB-19 CNS): 56.5 µM
- TGI (EKVX NSCLC): > 100 µM
- TGI (HCC-2998 colon): 50.9 µM
- TGI (NCI-H522 lung): > 100 µM
- TGI (OVCAR-5 ovarian): > 100 µM
- TGI (MDA-MB-435): > 100 µM
- TGI (M14 melanoma): > 100 µM
- TGI (A549 NSCLC): > 100 µM
- TGI (SF-268 CNS): > 100 µM
- TGI (NCI-H226 lung): 57.8 µM
- TGI (HCT-15 colon): > 100 µM
- TGI (BT-549 breast): > 100 µM
- TGI (MOLT-4 leukemia): > 100 µM
- TGI (TK-10 renal): > 100 µM
- TGI (SK-MEL-28 melanoma): > 100 µM
- TGI (HOP-62 NSCLC): > 100 µM
- TGI (DU-145 prostate): 82.2 µM
